# Tested on: brains of rodents
# Assay: Expression, distribution and longevity of transgene in brain after intrastriatal vector injection (immunohistochemistry)
# Format: in vivo, Lewis rat
# Conditions: GCV 25 mg/kg i.p. twice daily for 7 days vs saline after RAd 128; 1 month to 1 year
# Description: UK. […] Antibodies were diluted in 1% NHS in TBS.
# Groups of animals were then perfused 1 month, 3 months, 5 months, or 12 months later. Animals were perfusion-fixed and brains were cut in serial sections.
# To assess the effects of HSV-1 TK on the expression another transgene, lacZ, a combination of either RAd TK+RAd HPRT or RAd 35+RAd HPRT or RAd 35+RAd TK was injected into the mid striatum of 9 rats (3 rats per group). The total vector dose was 8×10^7 iu (i.e. 4×10^7 iu per vector).
smiles,measurement,value
"Nc1nc(O)c2ncn(COC(CO)CO)c2n1 [GCV, ganciclovir]",Effect on the maintenance of HSV1-TK immunoreactivity in the rodent brain,no effect

# — US8460932B2, “Method of treating a disorder by suicide gene therapy” (priority 1999, dated 2013)
